Measured values reported in PubChem BioAssay (NCI).
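A five-concentration, 48-hour dose response in 96-well plates underlies each endpoint, interpolated linearly between surrounding concentrations. Here, GI50 denotes the concentration required for 50% inhibition of growth. The concentration for full growth arrest is given as TGI.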

Tests used:
Assay in all cases: growth of human tumour cells (NCI), 48 h
786-0 renal = system: 786-0 renal
A498 renal = system: A498 renal
A549 NSCLC = system: A549 NSCLC
ACHN renal = system: ACHN renal
BT-549 breast = system: BT-549 breast
CCRF-CEM leukemia = system: CCRF-CEM leukemia
COLO 205 colon = system: COLO 205 colon
DU-145 prostate = system: DU-145 prostate
EKVX NSCLC = system: EKVX NSCLC
HCC-2998 colon = system: HCC-2998 colon
HCT-116 colon = system: HCT-116 colon
HCT-15 colon = system: HCT-15 colon
HL-60(TB) leukemia = system: HL-60(TB) leukemia
HOP-62 NSCLC = system: HOP-62 NSCLC
HOP-92 NSCLC = system: HOP-92 NSCLC
HS 578T breast = system: HS 578T breast
HT29 colon = system: HT29 colon
IGROV1 ovarian = system: IGROV1 ovarian
K-562 leukemia = system: K-562 leukemia
KM12 colon = system: KM12 colon
LOX IMVI melanoma = system: LOX IMVI melanoma
M14 melanoma = system: M14 melanoma
MALME-3M melanoma = system: MALME-3M melanoma
MCF7 breast = system: MCF7 breast
MDA-MB-231 breast = system: MDA-MB-231 breast
MDA-MB-435 = system: MDA-MB-435
MOLT-4 leukemia = system: MOLT-4 leukemia
NCI-H226 lung = system: NCI-H226 lung
NCI-H23 lung = system: NCI-H23 lung
NCI-H460 lung = system: NCI-H460 lung
NCI-H522 lung = system: NCI-H522 lung
NCI/ADR-RES ovarian = system: NCI/ADR-RES ovarian
OVCAR-3 ovarian = system: OVCAR-3 ovarian
OVCAR-4 ovarian = system: OVCAR-4 ovarian
OVCAR-5 ovarian = system: OVCAR-5 ovarian
OVCAR-8 ovarian = system: OVCAR-8 ovarian
PC-3 prostate = system: PC-3 prostate
RPMI-8226 leukemia = system: RPMI-8226 leukemia
RXF 393 renal = system: RXF 393 renal
SF-268 CNS = system: SF-268 CNS
SF-295 CNS = system: SF-295 CNS
SF-539 CNS = system: SF-539 CNS
SK-MEL-2 melanoma = system: SK-MEL-2 melanoma
SK-MEL-28 melanoma = system: SK-MEL-28 melanoma
SK-MEL-5 melanoma = system: SK-MEL-5 melanoma
SK-OV-3 ovarian = system: SK-OV-3 ovarian
SN12C renal = system: SN12C renal
SNB-19 CNS = system: SNB-19 CNS
SNB-75 CNS = system: SNB-75 CNS
SR leukemia = system: SR leukemia
SW-620 colon = system: SW-620 colon
T-47D breast = system: T-47D breast
TK-10 renal = system: TK-10 renal
U251 CNS = system: U251 CNS
UACC-257 melanoma = system: UACC-257 melanoma
UACC-62 melanoma = system: UACC-62 melanoma
UO-31 renal = system: UO-31 renal

Q: For CC1=C[C@H]2O[C@@H]3C[C@H]4OC(=O)/C=C\C=C\[C@H]([C@@H](C)O)OCC/C(C)=C/C(=O)OC[C@@]2(CC1)[C@]4(C)[C@]31CO1, which GI50 (786-0 renal) is on record?
A: 3.93 nM

Q: What about the TGI (786-0 renal) of the same molecule?
A: 24.9 nM

Q: And the GI50 (A498 renal)?
A: 5.33 nM

Q: And the TGI (A498 renal)?
A: 14.1 nM

Q: What about the GI50 (A549 NSCLC) of the same molecule?
A: 5.26 nM

Q: And the TGI (A549 NSCLC)?
A: 32.9 nM

Q: What about the GI50 (ACHN renal) of the same molecule?
A: 8.52 nM

Q: What about the TGI (ACHN renal) of the same molecule?
A: 65 nM

Q: What about the GI50 (BT-549 breast) of the same molecule?
A: 3.87 nM

Q: And the TGI (BT-549 breast)?
A: 10.8 nM

Q: And the GI50 (CCRF-CEM leukemia)?
A: 4.25 nM

Q: And the TGI (CCRF-CEM leukemia)?
A: 14300 nM

Q: What about the GI50 (COLO 205 colon) of the same molecule?
A: 7.33 nM

Q: And the TGI (COLO 205 colon)?
A: 18.9 nM

Q: What about the GI50 (DU-145 prostate) of the same molecule?
A: 4.11 nM

Q: And the TGI (DU-145 prostate)?
A: 13.9 nM

Q: What about the GI50 (EKVX NSCLC) of the same molecule?
A: 7.64 nM

Q: And the TGI (EKVX NSCLC)?
A: 52.4 nM

Q: What about the GI50 (HCC-2998 colon) of the same molecule?
A: 3.47 nM

Q: What about the TGI (HCC-2998 colon) of the same molecule?
A: 12.1 nM

Q: What about the GI50 (HCT-116 colon) of the same molecule?
A: 2.37 nM

Q: And the TGI (HCT-116 colon)?
A: 8.21 nM

Q: What about the GI50 (HCT-15 colon) of the same molecule?
A: 3.71 nM

Q: What about the TGI (HCT-15 colon) of the same molecule?
A: 23.6 nM

Q: And the GI50 (HL-60(TB) leukemia)?
A: 2.39 nM

Q: What about the TGI (HL-60(TB) leukemia) of the same molecule?
A: 6.84 nM

Q: What about the GI50 (HOP-62 NSCLC) of the same molecule?
A: 6.42 nM

Q: And the TGI (HOP-62 NSCLC)?
A: 26.3 nM

Q: And the GI50 (HOP-92 NSCLC)?
A: 11.6 nM

Q: And the TGI (HOP-92 NSCLC)?
A: 84.3 nM

Q: And the GI50 (HS 578T breast)?
A: 7.34 nM

Q: And the TGI (HS 578T breast)?
A: 29.8 nM

Q: What about the GI50 (HT29 colon) of the same molecule?
A: 4.26 nM

Q: What about the TGI (HT29 colon) of the same molecule?
A: 18.8 nM

Q: What about the GI50 (IGROV1 ovarian) of the same molecule?
A: 4.4 nM

Q: What about the TGI (IGROV1 ovarian) of the same molecule?
A: 41.7 nM

Q: And the GI50 (K-562 leukemia)?
A: 2.92 nM

Q: What about the TGI (K-562 leukemia) of the same molecule?
A: 14300 nM

Q: And the GI50 (KM12 colon)?
A: 6.25 nM

Q: What about the TGI (KM12 colon) of the same molecule?
A: 132 nM

Q: And the GI50 (LOX IMVI melanoma)?
A: 2.77 nM

Q: And the TGI (LOX IMVI melanoma)?
A: 10.6 nM

Q: And the GI50 (M14 melanoma)?
A: 2.78 nM

Q: What about the TGI (M14 melanoma) of the same molecule?
A: 6.22 nM

Q: What about the GI50 (MALME-3M melanoma) of the same molecule?
A: 3.23 nM

Q: And the TGI (MALME-3M melanoma)?
A: 11.2 nM

Q: What about the GI50 (MCF7 breast) of the same molecule?
A: 2.76 nM

Q: And the TGI (MCF7 breast)?
A: 18.9 nM

Q: What about the GI50 (MDA-MB-231 breast) of the same molecule?
A: 17.4 nM

Q: And the TGI (MDA-MB-231 breast)?
A: 77.5 nM

Q: And the GI50 (MDA-MB-435)?
A: 7.94 nM

Q: And the TGI (MDA-MB-435)?
A: 31.9 nM

Q: What about the GI50 (MOLT-4 leukemia) of the same molecule?
A: 2.38 nM

Q: And the TGI (MOLT-4 leukemia)?
A: 469 nM

Q: And the GI50 (NCI-H226 lung)?
A: 3.23 nM

Q: And the TGI (NCI-H226 lung)?
A: 17.7 nM

Q: What about the GI50 (NCI-H23 lung) of the same molecule?
A: 6.14 nM

Q: What about the TGI (NCI-H23 lung) of the same molecule?
A: 27 nM

Q: And the GI50 (NCI-H460 lung)?
A: 2.46 nM

Q: What about the TGI (NCI-H460 lung) of the same molecule?
A: 6.92 nM

Q: And the GI50 (NCI-H522 lung)?
A: 2.63 nM

Q: What about the TGI (NCI-H522 lung) of the same molecule?
A: 10.6 nM

Q: And the GI50 (NCI/ADR-RES ovarian)?
A: 10.8 nM

Q: What about the TGI (NCI/ADR-RES ovarian) of the same molecule?
A: 98.9 nM

Q: And the GI50 (OVCAR-3 ovarian)?
A: 4.4 nM

Q: And the TGI (OVCAR-3 ovarian)?
A: 34 nM

Q: And the GI50 (OVCAR-4 ovarian)?
A: 7.24 nM

Q: And the TGI (OVCAR-4 ovarian)?
A: 69.9 nM

Q: What about the GI50 (OVCAR-5 ovarian) of the same molecule?
A: 12 nM

Q: And the TGI (OVCAR-5 ovarian)?
A: 67.9 nM

Q: And the GI50 (OVCAR-8 ovarian)?
A: 9.15 nM

Q: What about the TGI (OVCAR-8 ovarian) of the same molecule?
A: 45.3 nM

Q: What about the GI50 (PC-3 prostate) of the same molecule?
A: 6.63 nM

Q: What about the TGI (PC-3 prostate) of the same molecule?
A: 116 nM

Q: What about the GI50 (RPMI-8226 leukemia) of the same molecule?
A: 3.82 nM

Q: And the TGI (RPMI-8226 leukemia)?
A: 10.4 nM

Q: What about the GI50 (RXF 393 renal) of the same molecule?
A: 4.37 nM

Q: What about the TGI (RXF 393 renal) of the same molecule?
A: 18.6 nM

Q: And the GI50 (SF-268 CNS)?
A: 10.6 nM

Q: What about the TGI (SF-268 CNS) of the same molecule?
A: 41.1 nM

Q: And the GI50 (SF-295 CNS)?
A: 8.91 nM

Q: What about the TGI (SF-295 CNS) of the same molecule?
A: 34.9 nM

Q: What about the GI50 (SF-539 CNS) of the same molecule?
A: 3.65 nM

Q: And the TGI (SF-539 CNS)?
A: 11.5 nM

Q: What about the GI50 (SK-MEL-2 melanoma) of the same molecule?
A: 12.4 nM

Q: What about the TGI (SK-MEL-2 melanoma) of the same molecule?
A: 42.9 nM

Q: What about the GI50 (SK-MEL-28 melanoma) of the same molecule?
A: 5.3 nM

Q: What about the TGI (SK-MEL-28 melanoma) of the same molecule?
A: 22.5 nM

Q: And the GI50 (SK-MEL-5 melanoma)?
A: 2.58 nM

Q: What about the TGI (SK-MEL-5 melanoma) of the same molecule?
A: 7.77 nM

Q: What about the GI50 (SK-OV-3 ovarian) of the same molecule?
A: 6.89 nM

Q: And the TGI (SK-OV-3 ovarian)?
A: 27.9 nM

Q: What about the GI50 (SN12C renal) of the same molecule?
A: 12 nM

Q: And the TGI (SN12C renal)?
A: 74.2 nM

Q: What about the GI50 (SNB-19 CNS) of the same molecule?
A: 4.14 nM

Q: What about the TGI (SNB-19 CNS) of the same molecule?
A: 26.1 nM

Q: What about the GI50 (SNB-75 CNS) of the same molecule?
A: 8.15 nM

Q: What about the TGI (SNB-75 CNS) of the same molecule?
A: 24.7 nM

Q: What about the GI50 (SR leukemia) of the same molecule?
A: 4.05 nM

Q: What about the TGI (SR leukemia) of the same molecule?
A: 11.1 nM

Q: What about the GI50 (SW-620 colon) of the same molecule?
A: 8.1 nM

Q: What about the TGI (SW-620 colon) of the same molecule?
A: 49.1 nM

Q: And the GI50 (T-47D breast)?
A: 8.31 nM

Q: What about the TGI (T-47D breast) of the same molecule?
A: 28.8 nM

Q: And the GI50 (TK-10 renal)?
A: 9.23 nM

Q: What about the TGI (TK-10 renal) of the same molecule?
A: 39.5 nM

Q: What about the GI50 (U251 CNS) of the same molecule?
A: 4.43 nM

Q: And the TGI (U251 CNS)?
A: 26.4 nM

Q: What about the GI50 (UACC-257 melanoma) of the same molecule?
A: 11.2 nM

Q: What about the TGI (UACC-257 melanoma) of the same molecule?
A: 37.9 nM

Q: What about the GI50 (UACC-62 melanoma) of the same molecule?
A: 6.99 nM

Q: What about the TGI (UACC-62 melanoma) of the same molecule?
A: 23.5 nM

Q: What about the GI50 (UO-31 renal) of the same molecule?
A: 5.43 nM

Q: And the TGI (UO-31 renal)?
A: 33.5 nM
